Drawing on ChEMBL document CHEMBL1909046, “DrugMatrix in vitro pharmacology data”, this text covers IC50 and Ki for seven compounds.

For orientation: IC50 means the concentration that gives 50% inhibition.

The target in one assay is T1, Progesterone receptor (Bos taurus, UniProt Q690N0).
T1 sequence (Q690N0 whole entry): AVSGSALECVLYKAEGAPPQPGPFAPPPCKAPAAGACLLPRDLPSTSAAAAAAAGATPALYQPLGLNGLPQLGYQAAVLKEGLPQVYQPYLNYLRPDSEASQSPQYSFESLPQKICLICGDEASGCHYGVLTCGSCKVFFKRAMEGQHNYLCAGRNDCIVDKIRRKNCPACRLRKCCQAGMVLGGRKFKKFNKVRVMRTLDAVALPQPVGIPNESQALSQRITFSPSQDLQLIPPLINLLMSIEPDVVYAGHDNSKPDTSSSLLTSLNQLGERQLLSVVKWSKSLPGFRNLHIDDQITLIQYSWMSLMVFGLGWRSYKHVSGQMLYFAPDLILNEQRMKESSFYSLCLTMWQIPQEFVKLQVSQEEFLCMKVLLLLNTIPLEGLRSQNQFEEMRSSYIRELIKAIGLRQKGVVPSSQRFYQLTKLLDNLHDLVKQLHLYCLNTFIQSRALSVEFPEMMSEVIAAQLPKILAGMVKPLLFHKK
The experiment in a line: DRUGMATRIX: Progesterone radioligand binding (ligand: [3H] R-5020). Type of assay: tissue-based, Uterus. The conditions noted are these: Not Active = under 50% inhibition at 10 µM.

The target of assay [1] is T2, Angiotensin-converting enzyme (Oryctolagus cuniculus, UniProt P12822).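 Also: enzymatic inhibition of angiotensin-converting enzyme measured with FAPGG as the substrate; in other assays of this panel Not Active means under 50% inhibition at 10 µM.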
T2 sequence (P12822 whole entry): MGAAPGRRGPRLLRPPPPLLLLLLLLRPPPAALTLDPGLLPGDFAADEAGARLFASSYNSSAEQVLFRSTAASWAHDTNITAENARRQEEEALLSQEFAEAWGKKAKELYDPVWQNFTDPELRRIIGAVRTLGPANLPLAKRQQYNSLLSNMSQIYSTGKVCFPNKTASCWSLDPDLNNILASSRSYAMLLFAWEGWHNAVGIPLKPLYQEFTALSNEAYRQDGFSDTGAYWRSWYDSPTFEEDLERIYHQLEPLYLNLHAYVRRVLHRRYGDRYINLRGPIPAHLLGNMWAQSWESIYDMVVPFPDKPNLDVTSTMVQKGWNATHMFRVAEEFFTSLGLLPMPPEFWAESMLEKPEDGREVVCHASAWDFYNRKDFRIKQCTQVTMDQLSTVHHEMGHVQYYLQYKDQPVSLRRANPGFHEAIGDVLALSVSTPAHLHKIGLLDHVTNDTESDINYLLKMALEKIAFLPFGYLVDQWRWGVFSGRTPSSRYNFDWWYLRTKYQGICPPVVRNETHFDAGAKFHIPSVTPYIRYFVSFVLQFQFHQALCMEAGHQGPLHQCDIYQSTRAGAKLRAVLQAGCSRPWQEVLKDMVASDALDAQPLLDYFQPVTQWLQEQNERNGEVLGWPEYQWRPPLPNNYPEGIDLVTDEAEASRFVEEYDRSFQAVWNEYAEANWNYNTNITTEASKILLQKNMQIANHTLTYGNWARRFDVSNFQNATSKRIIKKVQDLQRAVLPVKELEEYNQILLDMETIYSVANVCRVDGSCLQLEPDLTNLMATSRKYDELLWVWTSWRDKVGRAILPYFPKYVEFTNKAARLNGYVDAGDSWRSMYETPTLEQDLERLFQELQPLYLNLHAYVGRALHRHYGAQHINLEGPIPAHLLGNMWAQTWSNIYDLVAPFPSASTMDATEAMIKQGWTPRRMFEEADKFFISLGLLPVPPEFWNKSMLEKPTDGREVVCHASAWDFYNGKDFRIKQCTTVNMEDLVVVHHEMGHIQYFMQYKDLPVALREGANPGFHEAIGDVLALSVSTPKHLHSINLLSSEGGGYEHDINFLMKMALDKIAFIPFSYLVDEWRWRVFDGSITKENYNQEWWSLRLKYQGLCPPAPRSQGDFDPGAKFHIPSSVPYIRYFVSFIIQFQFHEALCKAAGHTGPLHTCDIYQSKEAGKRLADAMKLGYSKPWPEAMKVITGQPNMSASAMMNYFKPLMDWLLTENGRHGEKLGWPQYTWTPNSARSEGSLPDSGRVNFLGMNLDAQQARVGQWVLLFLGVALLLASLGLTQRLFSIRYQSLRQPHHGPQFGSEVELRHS
The assay is described as follows: biochemical. The class given is tissue-based, Lung.

A short description of assay [2]: DRUGMATRIX: Phorbol Ester radioligand binding (ligand: [3H] PDBu). To be noted: Not Active = under 50% inhibition at 10 µM. Type of assay: cell membranes, Mus musculus, ICR, Brain, Membrane.
Assay [3] in a line: DRUGMATRIX: Calcium Channel Type L, Benzothiazepine radioligand binding (ligand: [3H] Diltiazem). The class given is cell membranes, Rattus norvegicus, Wistar, Brain, Membrane. The conditions noted are these: Not Active = under 50% inhibition at 10 µM.
Assay [4] is described as follows: DRUGMATRIX: Atrial Natriuretic Factor (ANF) radioligand binding (ligand: [125I] ANF (rat)). Type of assay: cell membranes, Cavia porcellus, Dunkin-Hartley, Adrenal gland, Membrane. To be noted: Not Active = under 50% inhibition at 10 µM.
The nature of assay [5]: DRUGMATRIX: beta-Lactamase enzyme inhibition (substrate: Nitrocefin). More on the design: species or system Bacillus cereus. The conditions noted are these: Not Active = under 50% inhibition at 10 µM.
Assay [6] has as its target C-C chemokine receptor type 2 (Homo sapiens, UniProt P41597). Type of assay: cell membranes, CHO-K1, Membrane. The conditions noted are these: cho-k1. Also: in other assays of this panel Not Active means under 50% inhibition at 10 µM.
A short description of assay [7]: DRUGMATRIX: Glutamate, Kainate radioligand binding (ligand: [3H] Kainic acid). The class given is cell membranes, Rattus norvegicus, Wistar, Brain, Membrane. To be noted: Not Active = under 50% inhibition at 10 µM.
The target in the next assay is T3, Thromboxane-A synthase (Homo sapiens, UniProt P24557).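 Also: enzyme inhibition assay with PGH2 supplied as substrate; in other assays of this panel Not Active means under 50% inhibition at 10 µM.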
T3 sequence (P24557 whole entry): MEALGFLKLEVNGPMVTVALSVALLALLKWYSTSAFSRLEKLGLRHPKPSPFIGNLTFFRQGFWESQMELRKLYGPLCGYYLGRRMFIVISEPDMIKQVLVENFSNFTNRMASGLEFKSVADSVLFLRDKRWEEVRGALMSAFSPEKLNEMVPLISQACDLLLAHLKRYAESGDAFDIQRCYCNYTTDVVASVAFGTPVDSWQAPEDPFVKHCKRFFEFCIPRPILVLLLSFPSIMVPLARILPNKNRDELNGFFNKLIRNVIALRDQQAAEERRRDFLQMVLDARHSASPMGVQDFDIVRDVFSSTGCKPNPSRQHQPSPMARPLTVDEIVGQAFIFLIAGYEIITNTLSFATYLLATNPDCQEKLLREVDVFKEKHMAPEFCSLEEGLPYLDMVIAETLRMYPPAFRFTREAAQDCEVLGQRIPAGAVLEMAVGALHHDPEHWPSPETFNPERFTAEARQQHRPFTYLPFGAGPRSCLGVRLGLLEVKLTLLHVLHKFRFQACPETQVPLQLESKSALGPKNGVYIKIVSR
The assay is described as follows: biochemical. The class given is tissue-based, Platelet. To be noted: platelet.

Assay [8] can be described thus: DRUGMATRIX: GABAA, Flunitrazepam, Central radioligand binding (ligand: [3H] Flunitrazepam). The class given is cell membranes, Rattus norvegicus, Wistar, Brain, Membrane. The conditions noted are these: Not Active = under 50% inhibition at 10 µM.

C-C chemokine receptor type 2, sequence (P41597 whole entry): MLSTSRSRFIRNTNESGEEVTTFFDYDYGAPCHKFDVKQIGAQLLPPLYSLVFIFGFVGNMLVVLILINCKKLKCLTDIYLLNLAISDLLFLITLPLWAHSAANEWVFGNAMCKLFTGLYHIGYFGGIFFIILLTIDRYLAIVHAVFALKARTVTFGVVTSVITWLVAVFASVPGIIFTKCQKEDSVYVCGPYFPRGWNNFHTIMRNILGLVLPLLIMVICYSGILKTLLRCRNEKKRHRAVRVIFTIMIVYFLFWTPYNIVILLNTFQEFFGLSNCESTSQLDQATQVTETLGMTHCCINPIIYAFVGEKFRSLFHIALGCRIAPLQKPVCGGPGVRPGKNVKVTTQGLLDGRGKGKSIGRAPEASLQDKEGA

For the compound `CCOC(=O)[C@H](CCc1ccccc1)N[C@@H](C)C(=O)N1[C@H](C(=O)O)C[C@@H]2CCC[C@@H]21`, the IC50 result (at Progesterone receptor; in assay [1]; in assay [2]; in assay [3]; in assay [4]; in assay [5]) was “Not Active” each time. Further, the IC50 entry (in assay [6]; in [7]; on Thromboxane-A synthase; in assay [8]) was “Not Active” in each case. Besides, the Ki result in [2], in assay [3], in assay [4], in [5], in [7] and in assay [8] was “Not Active” in each case.

For the compound `CC1(C)[C@H]2CC[C@]1(C)C(=O)C2` [(-)-CAMPHOR], the IC50 entry (on Progesterone receptor; in [1]; in assay [2]; in [3]; in [4]; in assay [5]) was “Not Active” throughout. Also, the IC50 entry (in assay [6]; in assay [7]; against Thromboxane-A synthase; in assay [8]) was “Not Active” in each case. Further, the Ki result in assay [2], in assay [3], in assay [4], in [5], in assay [7] and in assay [8] was “Not Active” each time.

On to `CC(C)(C)NCC(O)c1ccc(O)c(CO)c1` (configuration not stated) [ALBUTEROL], for which the IC50 entry (at Progesterone receptor; in assay [1]; in [2]; in assay [3]; in [4]; in assay [5]) was “Not Active” throughout. For the same compound, the IC50 entry (in assay [6]; in assay [7]; against Thromboxane-A synthase; in [8]) was “Not Active” each time. The Ki entry in assay [2], in assay [3], in assay [4], in assay [5], in assay [7] and in assay [8] was “Not Active” in each case.

Consider `Oc1c(I)cc(I)c2cccnc12` [IODOQUINOL], for which the IC50 result is “Not Active” at Progesterone receptor; 906 nM in assay [1] (read-out: IC50); “Not Active” in [2]; “Not Active” in assay [3]; “Not Active” in [4]; “Not Active” in assay [5]. Besides, the IC50 entry (in [6]; in assay [7]; on Thromboxane-A synthase; in assay [8]) was “Not Active” in each case. The Ki result in assay [2], in assay [3], in assay [4], in assay [5], in assay [7] and in [8] was “Not Active” each time.

Turning to `NNC(=O)c1ccncc1` [ISONIAZID], the IC50 result (at Progesterone receptor; in assay [1]; in assay [2]; in assay [3]; in assay [4]; in assay [5]) was “Not Active” each time. Besides, the IC50 result (in assay [6]; in [7]; against Thromboxane-A synthase; in assay [8]) was “Not Active” throughout. In addition, the Ki entry in [2], in assay [3], in assay [4], in [5], in assay [7] and in [8] was “Not Active” each time.

Regarding `CC1=C(/C=C/C(C)=C/C=C/C(C)=C\C(=O)O)C(C)(C)CCC1` [ISOTRETINOIN], the IC50 entry (at Progesterone receptor; in [1]; in assay [2]; in [3]; in assay [4]; in assay [5]) was “Not Active” throughout. Further, the IC50 entry (in assay [6]; in assay [7]; at Thromboxane-A synthase; in assay [8]) was “Not Active” each time. Moreover, the Ki entry in [2], in [3], in [4], in assay [5], in assay [7] and in assay [8] was “Not Active” each time.

Take `CO[C@@H]1[C@@H](O[C@@H]2O[C@H](C)[C@@H](O[C@H]3C[C@@](C)(O)[C@@H](OC(=O)CC(C)C)[C@H](C)O3)[C@H](N(C)C)[C@H]2O)[C@@H](CC=O)C[C@@H](C)[C@@H](O)/C=C/C=C/C[C@@H](C)OC(=O)C[C@H]1O` [KITASAMYCIN]: the IC50 result (on Progesterone receptor; in assay [1]; in assay [2]; in assay [3]; in assay [4]; in assay [5]) was “Not Active” in each case. The IC50 entry (in assay [6]; in assay [7]; at Thromboxane-A synthase; in assay [8]) was “Not Active” each time. Also, the Ki entry in [2], in assay [3], in assay [4], in [5], in [7] and in assay [8] was “Not Active” throughout.
